This is an account of results in patent US8501804B2, “Bicyclic compound” (Takeda Pharmaceutical Company Limited, priority 2008, dated 2013).

One experiment concerns the target T1, human ACC1 (Homo sapiens, UniProt Q13085).
T1 construct: His6 (from vector pFAST-BacHTc); made in house; host or cells: SF-9 insect cells, recombinant baculovirus BAC-ACC1
In words: ACC1 inhibitory activity (malachite green). The experiment is classed as biochemical. As to conditions: test compound 10 μM; for inhibition at 10 µM: read-out: ACC1 10 μM inhibitory rate (%). An outline of the steps:
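His-tagged human ACC1 from baculovirus-infected Sf9 cells was Ni-NTA purified, diluted to 8 μg/ml, and preincubated with compound for 60 min at 30 °C in HEPES pH 7.5 buffer with MgCl2, citrate, DTT and BSA. Substrate solution (50 mM KHCO3, 200 μM ATP, 200 μM acetyl-CoA) was added for 20 min at 30 °C. Phosphate was read by malachite green at 620 nm against no-compound and no-acetyl-CoA controls.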

For another experiment, the target named is T2, human ACC2 (Nd) (Homo sapiens, UniProt O00763).
T2 construct: His6 (from vector pFAST-BacHTa); made in house; host or cells: SF-9 insect cells, recombinant baculovirus BAC-ACC2 (Nd)
T2 sequence (O00763 117-2458 limits assumed): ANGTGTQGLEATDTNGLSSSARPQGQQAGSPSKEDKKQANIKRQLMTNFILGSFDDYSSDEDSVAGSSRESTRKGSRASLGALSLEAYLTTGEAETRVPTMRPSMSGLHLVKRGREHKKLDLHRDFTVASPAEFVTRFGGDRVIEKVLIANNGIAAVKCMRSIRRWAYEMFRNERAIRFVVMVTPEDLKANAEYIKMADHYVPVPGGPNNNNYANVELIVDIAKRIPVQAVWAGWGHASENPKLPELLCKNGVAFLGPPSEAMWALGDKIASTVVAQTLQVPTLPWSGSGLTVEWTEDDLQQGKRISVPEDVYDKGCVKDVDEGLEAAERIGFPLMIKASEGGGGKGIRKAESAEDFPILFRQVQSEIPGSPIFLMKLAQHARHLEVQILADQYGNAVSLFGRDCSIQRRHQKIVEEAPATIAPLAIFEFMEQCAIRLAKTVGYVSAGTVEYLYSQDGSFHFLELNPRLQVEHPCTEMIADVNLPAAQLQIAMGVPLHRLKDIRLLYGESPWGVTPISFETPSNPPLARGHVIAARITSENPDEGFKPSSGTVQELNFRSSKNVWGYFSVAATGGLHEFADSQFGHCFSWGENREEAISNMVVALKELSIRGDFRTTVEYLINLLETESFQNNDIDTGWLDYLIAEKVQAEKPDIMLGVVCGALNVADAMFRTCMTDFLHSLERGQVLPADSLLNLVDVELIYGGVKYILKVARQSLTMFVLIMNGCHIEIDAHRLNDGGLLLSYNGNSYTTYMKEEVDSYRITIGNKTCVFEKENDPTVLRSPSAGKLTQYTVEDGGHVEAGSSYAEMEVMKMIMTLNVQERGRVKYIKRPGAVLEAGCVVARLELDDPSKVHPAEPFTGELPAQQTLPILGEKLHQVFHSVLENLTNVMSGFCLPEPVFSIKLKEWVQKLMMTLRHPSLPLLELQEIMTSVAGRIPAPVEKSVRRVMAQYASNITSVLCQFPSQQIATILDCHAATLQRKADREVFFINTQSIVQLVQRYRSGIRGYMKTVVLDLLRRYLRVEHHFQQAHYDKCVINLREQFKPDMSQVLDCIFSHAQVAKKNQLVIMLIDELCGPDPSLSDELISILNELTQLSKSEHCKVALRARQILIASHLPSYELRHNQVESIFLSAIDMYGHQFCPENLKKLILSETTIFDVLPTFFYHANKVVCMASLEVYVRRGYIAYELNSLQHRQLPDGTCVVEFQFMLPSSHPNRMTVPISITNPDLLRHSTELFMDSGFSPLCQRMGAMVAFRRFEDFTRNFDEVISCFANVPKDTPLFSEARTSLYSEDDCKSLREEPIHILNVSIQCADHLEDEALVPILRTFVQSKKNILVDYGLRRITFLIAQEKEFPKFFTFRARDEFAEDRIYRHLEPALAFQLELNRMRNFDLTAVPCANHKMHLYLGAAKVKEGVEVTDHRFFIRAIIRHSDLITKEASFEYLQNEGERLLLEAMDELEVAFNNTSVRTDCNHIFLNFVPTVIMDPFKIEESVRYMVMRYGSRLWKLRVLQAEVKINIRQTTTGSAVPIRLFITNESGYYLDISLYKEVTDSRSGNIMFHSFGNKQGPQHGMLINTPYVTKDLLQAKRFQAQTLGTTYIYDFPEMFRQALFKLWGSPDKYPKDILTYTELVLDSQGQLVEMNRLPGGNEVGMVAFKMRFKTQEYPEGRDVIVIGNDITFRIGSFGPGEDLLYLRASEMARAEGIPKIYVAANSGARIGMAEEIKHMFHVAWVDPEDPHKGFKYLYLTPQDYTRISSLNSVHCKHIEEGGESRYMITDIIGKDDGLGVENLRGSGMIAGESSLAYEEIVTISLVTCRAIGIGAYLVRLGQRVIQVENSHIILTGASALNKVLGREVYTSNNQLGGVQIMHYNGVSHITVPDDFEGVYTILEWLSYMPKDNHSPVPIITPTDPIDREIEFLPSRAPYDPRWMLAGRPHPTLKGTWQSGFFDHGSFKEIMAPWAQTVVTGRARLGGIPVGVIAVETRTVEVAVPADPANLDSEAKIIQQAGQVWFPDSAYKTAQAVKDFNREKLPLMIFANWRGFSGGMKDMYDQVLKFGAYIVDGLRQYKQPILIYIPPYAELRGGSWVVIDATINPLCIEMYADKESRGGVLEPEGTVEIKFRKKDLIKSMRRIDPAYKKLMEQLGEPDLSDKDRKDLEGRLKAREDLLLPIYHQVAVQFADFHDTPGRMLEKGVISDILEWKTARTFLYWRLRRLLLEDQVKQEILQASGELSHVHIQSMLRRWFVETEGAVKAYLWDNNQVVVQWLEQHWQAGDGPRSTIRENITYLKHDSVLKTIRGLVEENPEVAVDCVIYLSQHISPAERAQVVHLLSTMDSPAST
Nature of the experiment: ACC2 inhibitory activity (malachite green). The experiment is classed as biochemical. As to conditions: test compound 10 μM; for inhibition at 10 µM: read-out: ACC2 10 μM inhibitory rate (%). A digest of the protocol:
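Enzyme: N-terminally truncated human ACC2 lacking the mitochondrial targeting sequence, His-tagged, expressed in baculovirus-infected Sf9 cells and Ni-NTA purified. Working dilution 6.4 μg/ml in 50 mM HEPES pH 7.5, 10 mM MgCl2, 10 mM tripotassium citrate, 2 mM DTT, 0.75 mg/ml fatty-acid-free BSA. Test compound in DMSO.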

SMILES strings stand for the structures.

In the case of `CCOc1ccc(COc2ccc3sc(C(C)NC(C)=O)cc3c2)cc1` (centres unmarked) [Example 39, N-(1-{5-[(4-ethoxybenzyl)oxy]-1-benzothiophen-2-yl}ethyl)acetamide], the inhibition at 10 µM at human ACC1 was 17%; at human ACC2 (Nd), 80%.

With `CC(=O)NC(C)c1cc2cc(OCc3ccc(OCC4CC4)cc3F)ccc2o1` (centres unmarked) [Example 116 (retention time longer), N-[1-(5-{[4-(cyclopropylmethoxy)-2-fluorobenzyl]oxy}-1-benzofuran-2-yl)ethyl]acetamide], the “ACC1 10 μM inhibitory rate (%)” value on human ACC1 is 24%. In addition, the “ACC2 10 μM inhibitory rate (%)” value on human ACC2 (Nd) stood at 63%.

With `CCOc1ccc(COc2ccc3oc(C(C)NC(C)=O)cc3c2)cc1` (centres unmarked) [Example 27, optically active forms (two kinds) of N-(1-{5-[(4-ethoxybenzyl)oxy]-1-benzofuran-2-yl}ethyl)acetamide], the “ACC1 10 μM inhibitory rate (%)” value at human ACC1 came to 18%. Besides, the “ACC2 10 μM inhibitory rate (%)” value on human ACC2 (Nd) came to 76%.

Consider `CCCOc1ccc(C#Cc2ccc3c(c2)O[C@H]([C@H](C)NC(C)=O)C3)cc1` [Example 115, N-[(1S)-1-{(2S)-6-[(4-propoxyphenyl)ethynyl]-2,3-dihydro-1-benzofuran-2-yl}ethyl]acetamide], for which the inhibition at 10 µM on human ACC1 was 25%; at human ACC2 (Nd), 76%.

Regarding `CC(=O)NC(C)c1cc2cc(OCc3ccc(OCC4CC4)cc3Cl)ccc2o1` (centres unmarked) [Example 134 (retention time longer), N-[1-(5-{[2-chloro-4-(cyclopropylmethoxy)benzyl]oxy}-1-benzofuran-2-yl)ethyl]acetamide], the inhibition at 10 µM at human ACC1 is 33%; at human ACC2 (Nd) it was 55%.

In the case of `CC(=O)N[C@@H](C)[C@@H]1Cc2ccc(OCc3cnc(OCC4CC4)cc3F)cc2O1` [Example 142, N-{(1S)-1-[(2S)-6-{[6-(cyclopropylmethoxy)-4-fluoropyridin-3-yl]methoxy}-2,3-dihydro-1-benzofuran-2-yl]ethyl}acetamide], the inhibition at 10 µM was 42% at human ACC1 and 74% on human ACC2 (Nd).

Turning to `CC(=O)NC(C)c1cc2ccc(C#Cc3ccc(OCC4CC4)nc3)cc2o1` (centres unmarked) [Example 138, N-[1-(6-{[6-(cyclopropylmethoxy)pyridin-3-yl]ethynyl}-1-benzofuran-2-yl)ethyl]acetamide], the inhibition at 10 µM on human ACC1 is 22%; at human ACC2 (Nd), 70%.

In the case of `CC(=O)N[C@@H](C)[C@@H]1Cc2ccc(C#Cc3ccc(OCC4CC4)cc3)cc2O1.CC(=O)N[C@H](C)[C@H]1Cc2ccc(C#Cc3ccc(OCC4CC4)cc3)cc2O1` (mixture of isomers) [Example 129 (retention time longer), N-{(1R)-1-[(2R)-6-{[4-(cyclopropylmethoxy)phenyl]ethynyl}-2,3-dihydro-1-benzofuran-2-yl]ethyl}acetamide and N-{(1S)-1-[(2S)-6-{[4-(cyclopropylmethoxy)phenyl]ethynyl}-2,3-dihydro-1-benzofuran-2-yl]ethyl}acetamide], the “ACC1 10 μM inhibitory rate (%)” value at human ACC1 is on record as 51%. Also, the “ACC2 10 μM inhibitory rate (%)” value at human ACC2 (Nd) came to 86%.

As for `CCCOc1ccc(CCc2ccc3cc(C(C)NC(C)=O)oc3c2)cc1` (centres unmarked) [Example 47, optically active forms (two kinds) of N-(1-{6-[2-(4-propoxyphenyl)ethyl]-1-benzofuran-2-yl}ethyl)acetamide], the “ACC1 10 μM inhibitory rate (%)” value on human ACC1 is recorded as 37%. At human ACC2 (Nd), the “ACC2 10 μM inhibitory rate (%)” value worked out at 91%.

For the compound `CC(=O)NC(C)C1Cc2cc(OCc3ccc(OCC4CC4)cc3F)ccc2O1` (centres unmarked) [Example 141 (retention time shorter), N-[1-(5-{[4-(cyclopropylmethoxy)-2-fluorobenzyl]oxy}-2,3-dihydro-1-benzofuran-2-yl)ethyl]acetamide], the “ACC1 10 μM inhibitory rate (%)” value at human ACC1 is on record as 41%. Besides, the “ACC2 10 μM inhibitory rate (%)” value on human ACC2 (Nd) is on record as 95%.

`CCOc1ccc(COc2ccc3oc(C(C)NC(C)=O)cc3c2)c(Cl)c1` (centres unmarked) [Example 28, N-(1-{5-[(2-chloro-4-ethoxybenzyl)oxy]-1-benzofuran-2-yl}ethyl)acetamide]: the inhibition at 10 µM at human ACC1 was 19%; on human ACC2 (Nd) it was 81%.

For `CC(=O)N[C@@H](C)[C@@H]1Cc2ccc(OCc3ccc(OCC4CC4)cc3F)cc2O1` [Example 145, N-{(1S)-1-[(2S)-6-{[4-(cyclopropylmethoxy)-2-fluorobenzyl]oxy}-2,3-dihydro-1-benzofuran-2-yl]ethyl}acetamide], the inhibition at 10 µM came out at 42% on human ACC1 and 88% on human ACC2 (Nd).

For `CCOc1ccc(COc2ccc3oc(C(C)NC(C)=O)cc3c2)cc1` (centres unmarked) [Example 18, N-(1-{5-[(4-ethoxybenzyl)oxy]-1-benzofuran-2-yl}ethyl)acetamide], the inhibition at 10 µM at human ACC1 came out at 15%; on human ACC2 (Nd), 85%.
